Data as given in paper PMC6222352, “Ultrasound Assisted Synthesis of 4-(Benzyloxy)-N-(3-chloro-2-(substitutedphenyl)-4-oxoazetidin-1-yl) Benzamide as Challenging Anti-Tubercular Scaffold” (Molecules : A Journal of Synthetic Chemistry and Natural …, 2018).
≈ marks a conversion by molar mass, not a printed value. Where two headings read alike, the source gives them in different places.

How the values were obtained:
[1] = tested on: human cervical cancer cell line HeLa; assay: In vitro cytotoxicity by MTT assay; type: cell-based; details: 48 h, concentration range 100–0.1 μg/mL, read-out: Hela Cells IC50
Protocol: To lowers the failure of potential therapeutics at later stages of clinical trials toxicity analysis of synthesized compounds at the early stage of research work plays a very important role. To examine the safety of the synthesized compounds, 6a–j were evaluated for their toxicity against human cervical cancer cell line HeLa using the concentration range between 100–0.1 μg/mL.
All the synthesized compounds were tested for their cytotoxicity by a modified MTT assay as described previously. Briefly, cells were seeded at the density of 1 × 10^5 cells/mL in a 96-well plate. The plates were incubated overnight in CO2 incubator (37 °C under 5% CO2 and 95% air in a humidified atmosphere). Next day, cells were treated with synthesized compounds at 10-fold dilution (100–0.1 µg/mL) and incubated for an additional 48 h. Paclitaxel was used as positive control. Post incubation, cell medium was replaced with MTT (0.5 mg/mL)-PBS medium and incubated for 2–4 h to form the reduced MTT or Formazan crystals. This reduced MTT or Formazan crystals were solubilized by addition of 100 µL of SDS-DMF (20% SDS in 50% DMF). The optical density was read on a microplate reader (Spectramax plus 384 plate reader, Molecular Devices Inc.) at 570 nm filter against a blank prepared from cell-free wells. Absorbance given by cells treated with the vehicle alone was taken as 100% cell growth. IC50 and MIC values were calculated from graphs, using Origin Pro software. Where DMSO treated culture cells is control and culture medium without cells is blank. The percent cytotoxicity in the presence of test fractions was calculated by the following formula:Percent cytotoxicity = [(average absorbance of control − absorbance of a compound)/(absorbance of control − absorbance of blank)] × 100(2)

[2] = tested on: Mycobacterium tuberculosis H37Ra (ATCC 25177); assay: In vitro anti-tubercular activity by XTT Reduction Menadione assay (XRMA); type: cell-based; details: 192 h, read-out: Mycobacterium tuberculosis H37Ra (ATCC 25177) IC50
Protocol: All the synthesized compounds 6a–j were screened for their in vitro anti-tubercular activity against MTB H37Ra (ATCC 25177). Rifampicin was used as a positive control.
In Vitro Anti-Tubercular Activity by the XTT Reduction Menadione Assay (XRMA) Method
Mycobacterium tuberculosis H37Ra (ATCC 25177) strains were obtained from AstraZeneca, India. The stock culture was maintained at −80 °C and subcultured once in a liquid M. pheli medium which contained 0.5 g KH2PO4, 0.25 g trisodium citrate, 60 mg MgSO4, 0.5 gm asparagine, and 2 mL glycerol in distilled water (100 mL) followed by pH adjustment to 6.6. Bacilli stock cultures were grown in M. pheli medium at 37 °C with continuous agitation at 150 RPM;, it takes at least 8–10 days for OD 1 at 620 nm. Stock solutions (10 mg/mL) of all the synthesized compounds were prepared in DMSO and were evaluated for in vitro anti-tubercular activity against Mycobacterium tuberculosis H37Ra (ATCC 25177) in a liquid medium using an established XTT Reduction Menadione assay (XRMA) method. Briefly, the 96 wells plate received 248.5 μL of M. Pheli medium consisting of bacilli and 2.5 μL of test solutions in serial dilution (12.5, 6.25, 3.125, 1.5625, 0.78 μg/mL). The plates were sealed with a 96-well sealing sheet and incubated at 37 °C for 8 days. Post incubation, XRMA was carried out to estimate viable cells present in different wells of the assay plate. The absorbance was read on a micro plate reader (Spectramax plus384 plate reader, Molecular Devices Inc., San Jose, CA, USA) at 470 nm filter against a blank prepared from cell-free wells. Absorbance given by cells treated with the vehicle alone was taken as 100% cell growth. MIC and IC50 values of compounds were calculated by using Origin 6 software. Percent inhibition was calculated by using following formula:% Inhibition = [(absorbance of Control − absorbance of Test)/(absorbance of Control − absorbance of Blank)] × 100(1) where control is the medium with bacilli along with vehicle and blank is cell-free medium. The drug in clinical use, rifampicin was used as a reference.

[3] = XRMA, 8 days incubation at 37 °C, liquid M. pheli medium

CCOc1cc(C2C(Cl)C(=O)N2NC(=O)c2ccc(OCc3ccccc3)cc2)ccc1O (stereo not shown) [Derivative 6h, 4-(Benzyloxy)-N-(3-chloro-2-(3-ethoxy-4-hydroxyphenyl)-4-oxoazetidin-1-yl) benzamide]
IC50 [1]: > 100 µg/mL | IC50 [2, 3]: 0.85 µg/mL (≈ 1.82 µM)

O=C(NN1C(=O)C(Cl)C1c1ccc(O)cc1)c1ccc(OCc2ccccc2)cc1 (stereo not shown) [Derivative 6a, 4-(Benzyloxy)-N-(3-chloro-2-(4-hydroxyphenyl)-4-oxoazetidin-1-yl) benzamide]
IC50 [1]: 82.6 µg/mL (≈ 195 µM) | IC50 [2, 3]: 0.652 µg/mL (≈ 1.54 µM)

O=C(NN1C(=O)C(Cl)C1c1ccc(F)cc1)c1ccc(OCc2ccccc2)cc1 (stereo not shown) [Derivative 6c, 4-(Benzyloxy)-N-(3-chloro-2-(4-fluorophenyl)-4-oxoazetidin-1-yl) benzamide]
IC50 [1]: 31.6 µg/mL (≈ 74.4 µM) | IC50 [2, 3]: 0.85 µg/mL (≈ 2 µM)

COc1cc(C2C(Cl)C(=O)N2NC(=O)c2ccc(OCc3ccccc3)cc2)ccc1O (stereo not shown) [Derivative 6g, 4-(Benzyloxy)-N-(3-chloro-2-(4-hydroxy-3-methoxyphenyl)-4-oxoazetidin-1-yl) benzamide]
IC50 [1]: > 100 µg/mL | IC50 [2, 3]: 0.718 µg/mL (≈ 1.59 µM)

O=C(NN1C(=O)C(Cl)C1c1cccs1)c1ccc(OCc2ccccc2)cc1 (stereo not shown) [Derivative 6j, 4-(Benzyloxy)-N-(3-chloro-2-oxo-4-(thiophen-2-yl)azetidin-1-yl) benzamide]
IC50 [1]: 33.2 µg/mL (≈ 80.4 µM) | IC50 [2, 3]: 0.786 µg/mL (≈ 1.9 µM)

CC(=O)O[C@H]1C(=O)[C@@]2(C)[C@H]([C@H](OC(=O)c3ccccc3)[C@]3(O)C[C@H](OC(=O)[C@H](O)[C@@H](NC(=O)c4ccccc4)c4ccccc4)C(C)=C1C3(C)C)[C@]1(OC(C)=O)CO[C@@H]1C[C@@H]2O [Paclitaxel, reference compound]
IC50 [1]: 0.0056 µg/mL (≈ 0.00656 µM)

O=C(NN1C(=O)C(Cl)C1c1ccc(OCc2ccccc2)cc1)c1ccc(OCc2ccccc2)cc1 (stereo not shown) [Derivative 6i, 4-(Benzyloxy)-N-(2-(4-(benzyloxy)phenyl)-3-chloro-4-oxoazetidin-1-yl) benzamide]
IC50 [1]: 89.2 µg/mL (≈ 174 µM) | IC50 [2, 3]: 1.31 µg/mL (≈ 2.55 µM)

COc1ccc(C2C(Cl)C(=O)N2NC(=O)c2ccc(OCc3ccccc3)cc2)cc1 (stereo not shown) [Derivative 6b, 4-(Benzyloxy)-N-(3-chloro-2-(4-methoxyphenyl)-4-oxoazetidin-1-yl) benzamide]
IC50 [1]: 54.9 µg/mL (≈ 126 µM) | IC50 [2, 3]: 0.918 µg/mL (≈ 2.1 µM)

COc1ccc(C2C(Cl)C(=O)N2NC(=O)c2ccc(OCc3ccccc3)cc2)cc1OC (stereo not shown) [Derivative 6f, 4-(Benzyloxy)-N-(3-chloro-2-(3,4-dimethoxyphenyl)-4-oxoazetidin-1-yl) benzamide]
IC50 [1]: 44.1 µg/mL (≈ 94.4 µM) | IC50 [2, 3]: 1.72 µg/mL (≈ 3.67 µM)

CO[C@H]1/C=C/O[C@@]2(C)Oc3c(C)c(O)c4c(O)c(c(/C=N/N5CCN(C)CC5)c(O)c4c3C2=O)NC(=O)/C(C)=C\C=C\[C@H](C)[C@H](O)[C@@H](C)[C@@H](O)[C@@H](C)[C@H](OC(C)=O)[C@@H]1C [Rifampicin, reference compound]
IC50 [2]: 0.004 µg/mL (≈ 0.00486 µM)

O=C(NN1C(=O)C(Cl)C1c1ccc(Cl)cc1)c1ccc(OCc2ccccc2)cc1 (stereo not shown) [Derivative 6d, 4-(Benzyloxy)-N-(3-chloro-2-(4-chlorophenyl)-4-oxoazetidin-1-yl) benzamide]
IC50 [1]: 70.4 µg/mL (≈ 159 µM) | IC50 [2, 3]: 1.34 µg/mL (≈ 3.04 µM)

O=C(NN1C(=O)C(Cl)C1c1cccc([N+](=O)[O-])c1)c1ccc(OCc2ccccc2)cc1 (stereo not shown) [Derivative 6e, 4-(Benzyloxy)-N-(3-chloro-2-(3-nitrophenyl)-4-oxoazetidin-1-yl) benzamide]
IC50 [1]: > 100 µg/mL | IC50 [2, 3]: 0.654 µg/mL (≈ 1.45 µM)
